Measured values: PubChem BioAssay AID1919002 (Molecular Pharmacology Branch, DTP, NCI, 2023)
Several values for one entry are separate records, joined by “and”; a condition that tells them apart may be missing. Equal values may be shown once.

Test system: 743489-274-T-PDC complex spheroid growth
Assay: Anticancer human tumor 743489-274-T-PDC patient-derived renal cell carcinoma cell line growth inhibition [AhR]
Conditions: for viability, T/C: stronger effect = lower value; active means viability on the fitted dose curve at most 10% of control; inactive means the rest
Summary of the method: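 Spheroids combined tumor cells with HUVEC endothelial cells and human MSCs as stroma. AhR antagonists were paired with standard or investigational drugs, each dosed in half-log steps down from near clinical Cmax, or from 10 microM where Cmax was unknown.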

[1] = curve of first compound, second compound 0.1 µM
[2] = curve of first compound, second compound 0.316 µM
[3] = curve of first compound, second compound 1 µM
[4] = curve of first compound, second compound 3.16 µM
[5] = curve of first compound, second compound 10 µM
[6] = second compound 0.1 µM, first compound 0.0316 µM
[7] = second compound 0.1 µM, first compound 0.1 µM
[8] = second compound 0.1 µM, first compound 0.316 µM
[9] = second compound 0.1 µM, first compound 1 µM
[10] = second compound 0.1 µM, first compound 3.16 µM
[11] = second compound 0.1 µM, first compound 10 µM
[12] = second compound 0.316 µM, first compound 0.0316 µM
[13] = second compound 0.316 µM, first compound 0.1 µM
[14] = second compound 0.316 µM, first compound 0.316 µM
[15] = second compound 0.316 µM, first compound 1 µM
[16] = second compound 0.316 µM, first compound 3.16 µM
[17] = second compound 0.316 µM, first compound 10 µM
[18] = second compound 1 µM, first compound 0.0316 µM
[19] = second compound 1 µM, first compound 0.1 µM
[20] = second compound 1 µM, first compound 0.316 µM
[21] = second compound 1 µM, first compound 1 µM
[22] = second compound 1 µM, first compound 3.16 µM
[23] = second compound 1 µM, first compound 10 µM
[24] = second compound 3.16 µM, first compound 0.0316 µM
[25] = second compound 3.16 µM, first compound 0.1 µM
[26] = second compound 3.16 µM, first compound 0.316 µM
[27] = second compound 3.16 µM, first compound 1 µM
[28] = second compound 3.16 µM, first compound 3.16 µM
[29] = second compound 3.16 µM, first compound 10 µM
[30] = second compound 10 µM, first compound 0.0316 µM
[31] = second compound 10 µM, first compound 0.1 µM
[32] = second compound 10 µM, first compound 0.316 µM
[33] = second compound 10 µM, first compound 1 µM
[34] = second compound 10 µM, first compound 3.16 µM
[35] = second compound 10 µM, first compound 10 µM
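Further: spheroids exposed to agents for 7 days before readout.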
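Wherever viability, T/C is given: 100% = DMSO vehicle control wells.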

O=C(C=Cc1cccc(S(=O)(=O)Nc2ccccc2)c1)NO + Cc1cncc(-c2nc(NCCc3c[nH]c4ccccc34)c3ncn(C(C)C)c3n2)c1
inactive: viability, T/C [6] 88.3% | viability, T/C [7] 87.7% | viability, T/C [8] 85.9% | viability, T/C [9] 77.5% | viability, T/C [10] 69.1% | viability, T/C [11] 51.4% | viability, T/C [12] 91.6% | viability, T/C [13] 95% | viability, T/C [14] 82.4% | viability, T/C [15] 72.6% | viability, T/C [16] 66.6% | viability, T/C [17] 52.4% | viability, T/C [18] 98.1% | viability, T/C [19] 94.3% | viability, T/C [20] 88.4% | viability, T/C [21] 70.6% | viability, T/C [22] 67.5% | viability, T/C [23] 52.7% | viability, T/C [24] 102% | viability, T/C [25] 104% | viability, T/C [26] 94% | viability, T/C [27] 82% | viability, T/C [28] 73.1% | viability, T/C [29] 54.6% | viability, T/C [30] 114% | viability, T/C [31] 118% | viability, T/C [32] 120% | viability, T/C [33] 102% | viability, T/C [34] 78% | viability, T/C [35] 68.1%
> 10 µM: IC50 [1] | IC50 [2] | IC50 [3] | IC50 [4] | IC50 [5]

O=C(C=Cn1cnc(-c2cc(C(F)(F)F)cc(C(F)(F)F)c2)n1)NNc1cnccn1 + Cc1ccccc1N=Nc1ccc(NC(=O)c2ccnn2C)c(C)c1
inactive: viability, T/C (second compound 0.1 µM, first compound 0.00949 µM) 106% | viability, T/C (second compound 0.1 µM, first compound 0.03 µM) 110% | viability, T/C (second compound 0.1 µM, first compound 0.0949 µM) 118% | viability, T/C (second compound 0.1 µM, first compound 0.3 µM) 140% | viability, T/C (second compound 0.1 µM, first compound 0.949 µM) 121% | viability, T/C (second compound 0.1 µM, first compound 3 µM) 104% | viability, T/C (second compound 0.316 µM, first compound 0.00949 µM) 105% | viability, T/C (second compound 0.316 µM, first compound 0.03 µM) 102% | viability, T/C (second compound 0.316 µM, first compound 0.0949 µM) 115% | viability, T/C (second compound 0.316 µM, first compound 0.3 µM) 133% | viability, T/C (second compound 0.316 µM, first compound 0.949 µM) 103% | viability, T/C (second compound 0.316 µM, first compound 3 µM) 94% | viability, T/C (second compound 1 µM, first compound 0.00949 µM) 97.8% | viability, T/C (second compound 1 µM, first compound 0.03 µM) 107% | viability, T/C (second compound 1 µM, first compound 0.0949 µM) 128% | viability, T/C (second compound 1 µM, first compound 0.3 µM) 140% | viability, T/C (second compound 1 µM, first compound 0.949 µM) 110% | viability, T/C (second compound 1 µM, first compound 3 µM) 97.1% | viability, T/C (second compound 3.16 µM, first compound 0.00949 µM) 102% | viability, T/C (second compound 3.16 µM, first compound 0.03 µM) 97.7% | viability, T/C (second compound 3.16 µM, first compound 0.0949 µM) 109% | viability, T/C (second compound 3.16 µM, first compound 0.3 µM) 127% | viability, T/C (second compound 3.16 µM, first compound 0.949 µM) 95.4% | viability, T/C (second compound 3.16 µM, first compound 3 µM) 82.5% | viability, T/C (second compound 10 µM, first compound 0.00949 µM) 90.8% | viability, T/C (second compound 10 µM, first compound 0.03 µM) 85.8% | viability, T/C (second compound 10 µM, first compound 0.0949 µM) 99.7% | viability, T/C (second compound 10 µM, first compound 0.3 µM) 128% | viability, T/C (second compound 10 µM, first compound 0.949 µM) 101% | viability, T/C (second compound 10 µM, first compound 3 µM) 79.2%
> 3 µM: IC50 [1] | IC50 [2] | IC50 [3] | IC50 [4] | IC50 [5]

O=C(c1cc(Cc2n[nH]c(=O)c3ccccc23)ccc1F)N1CCN(C(=O)C2CC2)CC1 + CC(CO)NC(=O)c1cc(-c2ccc(Cl)cc2)nn(-c2cnn(C)c2)c1=O
inactive: viability, T/C [6] 106% | viability, T/C [7] 100% | viability, T/C [8] 98.3% | viability, T/C [9] 103% | viability, T/C [10] 95.3% | viability, T/C [11] 101% | viability, T/C [12] 86.3% | viability, T/C [13] 95.2% | viability, T/C [14] 91.8% | viability, T/C [15] 91.9% | viability, T/C [16] 91% | viability, T/C [17] 96.1% | viability, T/C [18] 93.4% | viability, T/C [19] 96.3% | viability, T/C [20] 100% | viability, T/C [21] 93.1% | viability, T/C [22] 94.8% | viability, T/C [23] 97% | viability, T/C [24] 93.6% | viability, T/C [25] 92.5% | viability, T/C [26] 99.4% | viability, T/C [27] 87.5% | viability, T/C [28] 96.4% | viability, T/C [29] 92.9% | viability, T/C [30] 103% | viability, T/C [31] 109% | viability, T/C [32] 97.9% | viability, T/C [33] 96.7% | viability, T/C [34] 93.7% | viability, T/C [35] 105%
> 10 µM: IC50 [1] | IC50 [2] | IC50 [3] | IC50 [4] | IC50 [5]

COc1cc(Nc2ncc3c(n2)-c2ccc(Cl)cc2C(c2c(F)cccc2OC)=NC3)ccc1C(=O)O + Cc1ccccc1N=Nc1ccc(NC(=O)c2ccnn2C)c(C)c1
> 10 µM: IC50 [1] | IC50 [2] | IC50 [3] | IC50 [4] | IC50 [5]
inactive: viability, T/C [6] 93.3% | viability, T/C [7] 93% | viability, T/C [8] 86.6% | viability, T/C [9] 87.5% | viability, T/C [10] 95.4% | viability, T/C [11] 79.8% | viability, T/C [12] 91.4% | viability, T/C [13] 88.1% | viability, T/C [14] 79.9% | viability, T/C [15] 77.2% | viability, T/C [16] 87.1% | viability, T/C [17] 90% | viability, T/C [18] 93% | viability, T/C [19] 98% | viability, T/C [20] 75.5% | viability, T/C [21] 77% | viability, T/C [22] 83.4% | viability, T/C [23] 81.5% | viability, T/C [24] 80.4% | viability, T/C [25] 94.2% | viability, T/C [26] 70.5% | viability, T/C [27] 78.4% | viability, T/C [28] 75.2% | viability, T/C [29] 82% | viability, T/C [30] 76.8% | viability, T/C [31] 81.2% | viability, T/C [32] 76.2% | viability, T/C [33] 74.3% | viability, T/C [34] 65.8% | viability, T/C [35] 78.7%

Cn1ncnc1C1c2n[nH]c(=O)c3cc(F)cc(c23)NC1c1ccc(F)cc1 (stereo not given)
inactive: viability, T/C (compound 0.000316 µM) 100% and 101% and 102% | viability, T/C (compound 0.001 µM) 105% and 111% and 108% | viability, T/C (compound 0.00316 µM) 95.8% and 107% and 98.2% | viability, T/C (compound 0.01 µM) 91.2% and 103% and 108% | viability, T/C (compound 0.0316 µM) 97.2% and 95.4% and 95.6% | viability, T/C (compound 0.1 µM) 103% and 94% and 99.3%
> 0.1 µM: IC50 (curve of compound)

Cc1cncc(-c2nc(NCCc3c[nH]c4ccccc34)c3ncn(C(C)C)c3n2)c1
> 10 µM: IC50 (compound alone, run of 08/16/2022)
inactive: viability, T/C (compound 0.1 µM) 95.2% [middle of 20 runs] | viability, T/C (compound 0.316 µM) 94.5% [middle of 20 runs]
